The source of these data is ChEMBL document CHEMBL5352500, “HSF1 Pathway Inhibitor Clinical Candidate (CCT361814/NXP800) Developed from a Phenotypic Screen as a Potential Treatment for Refractory Ovarian Cancer and Other Malignancies” (J Med Chem, 2023).

The test system of one data set is IGROV-1. Briefly: Antiproliferative activity against human IGROV-1 cells assessed as cell growth inhibition measured after 96 hrs by resazurin dye based celltiter-blue viability assay. The format is functional.
A further data set has as its system OVCAR-3. Briefly: Antiproliferative activity against human OVCAR-3 cells assessed as cell growth inhibition measured after 96 hrs by resazurin dye based celltiter-blue viability assay. The data set is classed as functional. A general note: The colour change of resazurin is a common sign of viable cells or microbes.
The subject of the next data set is OVCAR-5. Briefly: Antiproliferative activity against human OVCAR-5 cells assessed as cell growth inhibition measured after 96 hrs by resazurin dye based celltiter-blue viability assay. The format is functional.
For a further data set, the system named is OVCAR-8. Briefly: Antiproliferative activity against human OVCAR-8 cells assessed as cell growth inhibition measured after 96 hrs by resazurin dye based celltiter-blue viability assay. The data set is classed as functional.
The subject of the next data set is Caov-3 cell line. Briefly: Antiproliferative activity against human Caov-3 cells assessed as cell growth inhibition measured after 96 hrs by resazurin dye based celltiter-blue viability assay. The format is functional.
The next data set concerns PA-1. Briefly: Antiproliferative activity against human PA-1 cells assessed as cell growth inhibition measured after 96 hrs by resazurin dye based celltiter-blue viability assay. The data set is classed as functional.
A further data set concerns CH1. Briefly: Antiproliferative activity against human CH1 cells assessed as cell growth inhibition measured after 96 hrs by resazurin dye based celltiter-blue viability assay. The format is functional.
The next data set concerns RMG-I. Briefly: Antiproliferative activity against human RMG-I cell line assessed as cell growth inhibition measured after 96 hrs by resazurin dye based celltiter-blue viability assay. The format is functional.
A short description of data set [1]: Stability in pooled mouse plasma assessed as drug degradation at 1 uM. The format is ADME, cell-free.
A further data set in a line: physchem. The settings on record: buffer, pH 7.4.
Data set [2] in a line: AUC (0 to 6 hrs) in BALB/c mouse at 5 mg/kg, po measured for 24 hrs by LC-ESI-MS/MS analysis. The format is ADME, organism-based. On the set-up: time 24 hrs, dose 5 mg/kg, route po. The settings on record: in vivo.
Data set [3] in a line: Fraction unbound in BALB/c mouse blood at 5 mg/kg, po or 5 mg/kg, iv measured for 24 hrs by LC-MS/MS analysis. The data set is classed as ADME, organism-based.
The nature of data set [4]: Unbound AUC (0 to 6 hrs) in BALB/c mouse at 5 mg/kg, po or 5 mg/kg, iv measured for 24 hrs by LC-MS/MS analysis. The data set is classed as ADME, organism-based. As to conditions: in vivo.
The species entered for another data set is Mus musculus. The settings on record: dose 50.0 mg/kg, route po.
The nature of data set [5]: Reversal of doxorubicin resistance in human doxorubicin resistant CH1 cells assessed as doxorubicin GI50 incubated for 96 hrs by resazurin dye based celltiter-blue cell viability assay (reference value: 310 nM). The data set is classed as functional.
Data set [6] can be described thus: Unbound AUC (0 to 6 hrs) in BALB/c mouse at 5 mg/kg, po or 1 mg/kg, iv measured for 24 hrs by LC-MS/MS analysis. As to conditions: in vivo. The data set is classed as ADME, organism-based.

Activity calls are given as the source filed them. The calls are words filed in the database; no cut-off is given here.

As to `Cc1ccc(NC(=O)c2ccc3c(c2)OCCO3)cc1NC(=O)c1ccc2nc(OCCN3CCCC3)ccc2c1`, the GI50 in the data set on IGROV-1, with OVCAR-3, in the data set on OVCAR-5, with OVCAR-8, in the data set with Caov-3 cell line and in the data set with PA-1 was 50.1 nM each time. In addition, the concentration for 50% growth inhibition (GI50) in the data set on CH1 and with RMG-I was 50.1 nM each time. Also, the Stability result in data set [1] is on record as “Stable”. Moreover, in the data set “physchem”, the log distribution coefficient (logD) came out at 2.1.
On to `CCN1CCN(Cc2ccc3cc(C(=O)Nc4cc(NC(=O)c5ccc6c(c5)OCCO6)ccc4Cl)ccc3n2)CC1`, for which the AUC in data set [2] came out at 3.9 µM·h. This compound also had an unbound share (fraction unbound) at 24 h in data set [3] of 0.005. Besides, the fAUC in [4] was determined as 0.02 µM·h.
In the case of `CCN1CCN(Cc2ccc3cc(C(=O)Nc4cc(NC(=O)c5ccc6c(c5)OCCO6)ccc4F)ccc3n2)CC1`, in the data set listed under Mus musculus, the inhibition entry is “Active”.
As to `COc1ccc(CCN(C)CCCC(C#N)(c2ccc(OC)c(OC)c2)C(C)C)cc1OC` (configuration not stated), the GI50 in data set [5] amounted to 1.9 nM.
For the compound `CC(C)N1CCN(Cc2ccc3cc(C(=O)Nc4cc(NC(=O)c5ccc6c(c5)OCCO6)ccc4Cl)ccc3n2)CC1`, in data set [6], the fAUC stood at 0.026 µM·h.
The compound `Cc1ccc(NC(=O)c2ccc3c(c2)OCCO3)cc1NC(=O)c1ccc2nc(OCCN3CCCCC3)ccc2c1` yielded a fAUC in data set [4] of 0.012 µM·h.

A word on the GI50: it is the concentration giving 50% growth inhibition. A word on the logD: it is lipophilicity at a set pH, counting ionised and neutral species. A lower logD goes with lower lipophilicity. For orientation: AUC means concentration integrated over time. Low readings indicate less exposure, high ones more exposure. As a reminder, the fraction unbound is free concentration divided by total concentration.
